Molecular target: TTR (transthyretin) (Homo sapiens, UniProt P02766)
Assay: native MS of Aβ([…]) binding to TTR with and without tafamidis
Settings: TTR tetramer coincubated with Aβ(12–28) and tafamidis, overnight, room temperature; indirect read-out (tetramer stabilization)

O=C(O)c1ccc2nc(-c3cc(Cl)cc(Cl)c3)oc2c1 [tafamidis]
native MS of Aβ(12-28) binding to TTR with and without tafamidis: In the presence of tafamidis, we observed a clear decrease in Aβ binding to TTR
